The record followed here is patent publication US20030224076A1, “Anti-inflammatory and chemopreventive composition” (priority 2002, published 2003).

Experiment [1] can be described thus: Reactivity toward the mediator of inflammation hypochlorous acid (ethene liberation from ACC, GC). In kind it is biochemical. Conditions: HOCl 25 μM, ACC 1 mM, pH 5.7, 37° C., 30 minutes. From the text: Reactivity Toward the Mediator of Inflammation Hypochlorous Acid (HOCl) Cytotoxic hypochlorous acid is a specific product of phagocytosis-competent neutrophilic granulocytes. It is used to kill phagocytosed bacteria and viruses inside these leukocytes. Hypochlorous acid is, however, secreted through the leukocyte membrane into the extracellular medium, i.e. into the surrounding tissue, and there proves to be responsible for unwanted reactions like those observed at foci of inflammation (pain, reddening, swelling). A possible procedure for detecting the reactivity toward HOCI is as follows. HOCI liberates ethene specifically from ACC (1-aminocyclopropane-1-carboxylic acid), and the ethene is determined by gas chromatography. The following mixture is chosen to examine the interaction of the test substance in this model system: [table] The hypochlorous acid is allowed to interact with the bulking agents for 30 seconds and only then is the indicator molecule ACC added. The volume-calibrated reaction vessels which are closed gas-tight are then incubated at 37° C. for 30 minutes, and the ethene liberation is measured by GC. 5-aminosalicylate is employed in concentrations of 0.5-100 μM as positive control.

The test system of experiment [2] is Caco-2 cells. The experiment can be described thus: Protection of intestinal cells from genotoxic agents (comet assay, menadione-induced DNA damage). In kind it is cell-based, human. Conditions: menadione 2 μM alone (induced DNA damage). The procedure: The procedure for the method is as follows: The human colon adenocarcinoma cell line Caco-2 was cultivated in Dulbecco's MEM/nut mix F-12 Ham medium (Gibco) with 20% FCS (Gibco) and 1% penicillin/streptomycin (Gibco). The cells were seeded in Petri dishes (ø 35 mm) 24 h before substance incubation. After incubation with the physiological extract from carob fiber (stock solution: 10% w/v carob fiber, Caromax™, Nutrinova, in cell culture medium, working solutions: 0.001-1%), the cells were washed with PBS buffer solution (phosphate buffered salt solution) and subsequently treated with the DNA-damaging agent menadione (2 μM) and trypsinized/centrifuged. This was followed by testing for the preventive activity of the carob fiber extracts. The modulation of DNA damage by the carob fiber extracts compared with the untreated control was checked by single-cell gel electrophoresis (comet assay). The extent of DNA damage was quantified from the proportion of DNA in the comet tail (% tail intensity, TI %). The independent baseline damage was always also measured in control tests.

On to `Nc1ccc(O)c(C(=O)O)c1` [5-Aminosalicylate, 5-aminosalicylate], for which the “Amount of ethene liberated from ACC in %” value in experiment [1] (5-aminosalicylate 0.5 μM) is listed as 100%; in experiment [1] (5-aminosalicylate 1 μM), 92%; in experiment [1] (5-aminosalicylate 5 μM), 52%; in experiment [1] (5-aminosalicylate 10 μM), 13%; in experiment [1] (5-aminosalicylate 50 μM), 5%; in experiment [1] (5-aminosalicylate 100 μM) it was 3%.
Consider `CC1=CC(=O)c2ccccc2C1=O` [menadione], for which the “TI % (proportion of DNA in the comet tail, % tail intensity)” value in experiment [2] was 13.6%.
